Like-named read-outs stand apart in the source and are kept apart here.
How the values were obtained:
[1] = target: T1, acetylcholinesterase from Electrophorus electricus (Electrophorus electricus, UniProt O42275); assay: biochemical; format: biochemical; settings: for IC50: read-out: AChE IC50; for AChE rp (relative inhibition potency): rp = IC50 (mono-tacrine)/IC50 (tetra-tacrine); for AChE rp/n (inhibition potency on valency-corrected basis): rp/n = rp/number of tacrine rings; for less active when connected to the central multivalent sugar scaffold: from rp/n of the corresponding tetra-tacrine
T1 construct: purchased Sigma Aldrich type V-S
T1 sequence (O42275 24-633): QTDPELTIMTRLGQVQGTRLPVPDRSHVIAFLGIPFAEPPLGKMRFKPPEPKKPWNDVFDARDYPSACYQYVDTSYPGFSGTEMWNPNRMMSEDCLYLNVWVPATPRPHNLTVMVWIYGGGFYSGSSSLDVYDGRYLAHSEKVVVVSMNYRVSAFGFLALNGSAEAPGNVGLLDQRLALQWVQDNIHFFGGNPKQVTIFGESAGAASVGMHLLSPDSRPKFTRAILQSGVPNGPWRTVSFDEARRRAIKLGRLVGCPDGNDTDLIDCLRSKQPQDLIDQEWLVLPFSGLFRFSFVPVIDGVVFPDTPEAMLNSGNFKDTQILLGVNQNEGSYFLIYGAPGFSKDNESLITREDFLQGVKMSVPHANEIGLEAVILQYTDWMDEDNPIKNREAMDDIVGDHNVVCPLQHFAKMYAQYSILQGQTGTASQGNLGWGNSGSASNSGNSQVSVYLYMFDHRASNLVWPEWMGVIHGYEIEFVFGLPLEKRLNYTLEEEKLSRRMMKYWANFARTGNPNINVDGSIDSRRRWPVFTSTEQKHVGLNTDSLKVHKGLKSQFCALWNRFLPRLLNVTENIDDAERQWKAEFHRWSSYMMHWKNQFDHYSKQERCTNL
Experimental: (§1) For the assessment of enzymatic inhibition, commercially available acetylcholinesterase from Electrophorus electricus (type V-S, Sigma Aldrich) was used, conducting minor modifications on Ellman’s protocol. […] Enzymatic activities were measured in a UV–Vis instrument (Hitachi U-2900) using PS cuvettes containing […] phosphate buffer (pH 8.0), 5,5′-dithiobis(2-nitrobenzoic acid) (DTNB, 0.88 mM, buffer solution), acetylthiocholine iodide as a model substrate, inhibitor, properly diluted aqueous enzyme solution, and water up to 1.2 ml. Solutions of the enzymes were prepared so as to keep the reaction rate within 0.12–0.15 Abs/min when [S] = 4 × KM.
Calculation of IC50 values was accomplished by plotting %I vs. log[I] and adjusting to a second-order equation.
(§2) Data are expressed as the mean ± SD.

[2] = target: T1, acetylcholinesterase from Electrophorus electricus; assay: Kinetic study of AChE inhibition mode (Cornish-Bowden plots, inhibition constants); format: biochemical; settings: for Ki: mean ± SD
Experimental: as §1, with “KM. The formation of the chromophore was monitored during 125 s at 405 nm and 25 °C.” for “KM.”
For the calculation of the kinetic parameters of the free enzyme, and in the presence of 3a, five different substrate concentrations, ranging from ¼ KM to 4 × KM were used. Cornish-Bowden method[26] provided the mode of inhibition of 3a; for that purpose, two different plots were used: 1/v vs. [I] (Dixon plot) and [S]/v vs. [I]. […] Kinetic parameters (KM, Vmax, KM app, Vmax app) were obtained through non-linear regression analysis (least squares fit) using the GraphPad Prism 8.01 software and inhibition constants were calculated using the following equations: (1) KM,app=KM1+[I]/Kia/1+[I]/Kib (2) Vmaxapp=Vmax/1+[I]/Kib
as §2

[3] = tested on: AChE; settings: cited from earlier work
[4] = [S] = 121 μM, Electrophorus electricus AChE, mean ± SD

Compound: CO[C@H]1O[C@H](COCc2cn(CCCCCCNc3c4c(nc5ccccc35)CCCC4)nn2)[C@@H](OCc2cn(CCCCCCNc3c4c(nc5ccccc35)CCCC4)nn2)[C@H](OCc2cn(CCCCCCNc3c4c(nc5ccccc35)CCCC4)nn2)[C@H]1OCc1cn(CCCCCCNc2c3c(nc4ccccc24)CCCC3)nn1 [Compound 5a]
- IC50 [1]: 12.5 ± 3.3 nM
- AChE rp (relative inhibition potency) [1]: 1.0

Compound: OCc1cn(CCNc2c3c(nc4ccccc24)CCCC3)nn1 [Compound 3b, (1-(2-((1,2,3,4-tetrahydroacridin-9-yl)amino)ethyl)-1H-1,2,3-triazol-4-yl)metanol]
- IC50 [1]: 565 ± 79 nM

Compound: CO[C@H]1O[C@H](CO)[C@@H](O)[C@H](O)[C@H]1O [Methyl α-D-glucopyranoside, methyl α-D-glucopyranoside, reference compound]
- AChE inhibition (N.I.) ([1]; Tested at 100 μM inhibitor concentration, [S] = 121 μM): N.I.^d

Compound: CO[C@H]1O[C@H](COCc2cn(CCCNc3c4c(nc5ccccc35)CCCC4)nn2)[C@@H](OCc2cn(CCCNc3c4c(nc5ccccc35)CCCC4)nn2)[C@H](OCc2cn(CCCNc3c4c(nc5ccccc35)CCCC4)nn2)[C@H]1OCc1cn(CCCNc2c3c(nc4ccccc24)CCCC3)nn1 [Compound 4a]
- IC50 [1, 4]: 60.2 ± 5.5 nM
- AChE rp (relative inhibition potency) [1]: 5.8
- AChE rp/n (inhibition potency on valency-corrected basis) [1]: 1.5

Compound: CO[C@H]1O[C@H](COCc2cn(CCNc3c4c(nc5ccccc35)CCCC4)nn2)[C@@H](OCc2cn(CCNc3c4c(nc5ccccc35)CCCC4)nn2)[C@H](OCc2cn(CCNc3c4c(nc5ccccc35)CCCC4)nn2)[C@H]1OCc1cn(CCNc2c3c(nc4ccccc24)CCCC3)nn1 [Compound 3a]
- IC50 [1]: 43.7 ± 7.3 nM
- AChE rp (relative inhibition potency) [1]: 12.9
- AChE rp/n (inhibition potency on valency-corrected basis) [1]: 3.2
- mode of inhibition of AChE ([2]; Cornish-Bowden method): Mixed inhibition
- Ki ([2]; binding to enzyme-substrate complex, read-out: Kib (non-competitive inhibition constant)): 45 ± 5.9 nM
- Ki ([2]; binding to free enzyme, read-out: Kia (competitive inhibition constant)): 31.6 ± 2 nM

Compound: OCc1cn(CCCCCCCCNc2c3c(nc4ccccc24)CCCC3)nn1 [Compound 6b, (1-(8-((1,2,3,4-Tetrahydroacridin-9-yl)amino)octyl)-1H-1,2,3-triazol-4-yl)metanol]
- less active when connected to the central multivalent sugar scaffold [1]: more than 99%
- IC50 [1]: 7.1 ± 1 nM

Compound: OCc1cn(CCCCCCNc2c3c(nc4ccccc24)CCCC3)nn1 [Compound 5b, (1-(6-((1,2,3,4-tetrahydroacridin-9-yl)amino)hexyl)-1H-1,2,3-triazol-4-yl)metanol]
- less active when connected to the central multivalent sugar scaffold [1]: 75%
- IC50 [1]: 12.6 ± 2.4 nM

Compound: CO[C@H]1O[C@H](COCc2cn(CCCCCCCCNc3c4c(nc5ccccc35)CCCC4)nn2)[C@@H](OCc2cn(CCCCCCCCNc3c4c(nc5ccccc35)CCCC4)nn2)[C@H](OCc2cn(CCCCCCCCNc3c4c(nc5ccccc35)CCCC4)nn2)[C@H]1OCc1cn(CCCCCCCCNc2c3c(nc4ccccc24)CCCC3)nn1 [Compound 6a]
- IC50 [1, 4]: 232 ± 21 nM
- AChE rp (relative inhibition potency) [1]: 0.03

Compound: c1ccc2c(NCCCCCCCNc3c4c(nc5ccccc35)CCCC4)c3c(nc2c1)CCCC3 [bis(7)tacrine]
- fold stronger AChE inhibitor than tacrine [3]: ~1000 fold

Compound: OCc1cn(CCCNc2c3c(nc4ccccc24)CCCC3)nn1 [Compound 4b, (1-(3-((1,2,3,4-tetrahydroacridin-9-yl)amino)propyl)-1H-1,2,3-triazol-4-yl)metanol]
- IC50 [1]: 348 ± 23 nM
